Experimental data from patent US20240101589A1, “INHIBITORS OF METTL3” (Strom Therapeutics Limited, priority 2020, published 2024).
pIC50: −log10 of the molar value.

Key:
Caov-3 cells = assay: Caov3 cell proliferation CTG; type: cell-based; conditions: Homo sapiens, treated for 120 hours, CellTiter-Glo
Protocol: Cell treatment and cell growth assessment: 18 hours post-seeding in white 384-Viewplate (6007480, PerkinElmer) at 1500 cells/well, Caov3 cells were treated for 120 hours with compounds inhibiting the METTL3/14 activity (10 serial semi-log dilutions, 30 μM as top concentration). Upon treatment, Coav-3 cells were incubated for 10 min at RT with the CellTiter-Glo reagent (G7571, Promega). Measurement of the luminescence signal was performed on a microplate reader (Ensight, PerkinElmer).

METTL3/14 = METTL3/14 (Homo sapiens (Human), UniProt Q86U44); assay: METTL3/14 methyltransferase assay (RapidFire mass spectrometry, RFMS); type: biochemical; conditions: 5 nM METTL3/14, 0.2 μM RNA substrate, 0.5 μM SAM, 60 minutes at room temperature
Protocol: The enzymatic assay was established to determine IC50 values for inhibition of RNA methyltransferase activity. The enzyme used was full-length his-tagged METTL3 co-expressed with full length FLAG-tagged METTL14 in a baculovirus expression system. Enzymatic reactions were performed at room temperature in 384-well plates using a final reaction volume of 20 μL containing 20 mM TrisCl pH 7.6, 1 mM DTT, 0.01% Tween-20. 5 nM final concentration of METTL3/14 was pre-incubated with various compound concentrations for 10 minutes, followed by addition of 0.2 μM final concentration synthetic RNA substrate (5′P-[…]-3′) and 0.5 μM final concentration S-adenosyl-methionine (SAM). The reaction was incubated for a further 60 minutes at room temperature, and then quenched by the addition of 40 μL 7.5% TCA with two internal product standards (D4-SAH and 13C10-SAH). After termination, plates were sealed, centrifuged and stored at 4° C. until analysis.
RNA methyltransferase activity was measured label free using the RapidFire™ mass spectrometry (RF/MS) platform. Stopped and stable assay plates were analyzed on the Agilent RF300 integrated autosampler/solid-phase extraction (SPE) system coupled to an ABSciex 4000 mass spectrometer for the generation of the product S-adenosyl homocysteine (SAH) and normalized to the ratio of signal of the two internal product standards, respectively. Solvent A was water containing 0.1% (v/v) TCA. Solvent B was acetonitrile/0.1% ammonium acetate (8:2, v/v). More specifically, plates were centrifuged at 4350 rpm for 10 min, samples were aspirated under vacuum for 600 ms, then loaded onto a C18 solid-phase extraction cartridge and washed for 3 s with solvent A at a flow rate of 1.5 mL/min. Retained product and internal standards were eluted with solvent B at a flow rate of 1 mL/min for 3 s and finally the cartridge was re-equilibrated with solvent A for 500 ms. The mass transition for the product (SAH) was 384.9/135.9 Da. Transitions of the two internal product standards (IS1: D4-SAH and IS2: 13C10-SAH) were 389.1/135.8 Da and 395.0/134.2 Da, respectively. Ratios of SAH/IS1 and SAH/IS2 were used for normalization of matrix effects. IC50 values were calculated based on dilution series of individual compounds. Potency of a compound was measured at varied inhibitor concentrations and normalized to control wells without RNA substrate and without inhibition (DMSO only).

KASUMI-1 cells = assay: Kasumi cell proliferation CTG; type: cell-based; conditions: Homo sapiens, Kasumi 1, 120 h, treated for 120 hours, CellTiter-Glo
Protocol: Cell culture: KASUMI-1 cells (ACC20, Leibniz-Institut DSMZ Deutsche Sammlung von Mikroorganismen und Zellkulturen GmbH) were grown in RPMI 1640 (31870-025, Gibco) supplemented with 20% fetal bovine serum (F1524, Gibco), 1 mM sodium pyruvate (11360-039, Gibco) and 2 mM Glutamax (35050-038, Gibco) in a 5% CO2 humidified incubator at 37° C.
Cell treatment and cell growth assessment: KASUMI-1 cells were seeded in ultra-low attachment 384-well culture plate (MS-9384WZ, SBio) at a final concentration of 250 000 cells/ml (35 μL/well) and treated for 120 hours with compounds inhibiting the METTL3/14 activity (10 serial semi-log dilutions, 30 μM as top concentration). Upon treatment, Kasumi1 cells were incubated for 10 min at RT with the CellTiter-Glo reagent (G7571, Promega). Measurement of the luminescence signal was performed on a microplate reader (Ensight, PerkinElmer).

METTL3/14, sequence (Q86U44 whole entry): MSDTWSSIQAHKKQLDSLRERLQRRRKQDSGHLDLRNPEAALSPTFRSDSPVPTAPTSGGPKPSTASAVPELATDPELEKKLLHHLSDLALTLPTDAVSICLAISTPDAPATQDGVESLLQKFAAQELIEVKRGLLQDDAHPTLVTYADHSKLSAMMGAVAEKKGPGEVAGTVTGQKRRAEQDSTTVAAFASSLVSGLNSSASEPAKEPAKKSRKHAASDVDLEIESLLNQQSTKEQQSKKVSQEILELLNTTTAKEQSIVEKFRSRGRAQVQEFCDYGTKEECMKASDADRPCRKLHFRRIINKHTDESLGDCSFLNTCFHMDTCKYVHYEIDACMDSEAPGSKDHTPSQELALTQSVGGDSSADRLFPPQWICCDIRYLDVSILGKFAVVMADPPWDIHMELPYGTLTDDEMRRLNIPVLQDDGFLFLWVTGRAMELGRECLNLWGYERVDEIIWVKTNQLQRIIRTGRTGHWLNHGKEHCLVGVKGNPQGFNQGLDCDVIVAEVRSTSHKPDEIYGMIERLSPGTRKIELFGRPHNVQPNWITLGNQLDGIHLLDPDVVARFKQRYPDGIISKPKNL
METTL3/14, sequence (Q9HCE5 whole entry partner): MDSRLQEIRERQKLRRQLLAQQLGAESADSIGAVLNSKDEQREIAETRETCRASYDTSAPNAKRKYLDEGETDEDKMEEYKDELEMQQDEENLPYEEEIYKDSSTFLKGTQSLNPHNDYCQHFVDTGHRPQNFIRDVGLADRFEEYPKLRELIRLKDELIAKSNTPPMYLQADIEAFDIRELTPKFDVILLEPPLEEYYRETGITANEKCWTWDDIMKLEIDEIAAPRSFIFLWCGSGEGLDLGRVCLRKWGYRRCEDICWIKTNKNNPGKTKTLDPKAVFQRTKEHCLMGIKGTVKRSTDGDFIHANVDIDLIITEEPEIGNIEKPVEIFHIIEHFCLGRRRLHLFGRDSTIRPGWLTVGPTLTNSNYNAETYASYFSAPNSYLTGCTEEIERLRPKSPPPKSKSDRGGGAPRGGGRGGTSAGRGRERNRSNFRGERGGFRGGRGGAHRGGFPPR

Row | SMILES | pIC50 (Caov-3 cells) | pIC50 (METTL3/14) | pIC50 (KASUMI-1 cells)
1 | Nc1ncnc2c1c(Br)cn2[C@@H]1C[C@H](c2cccc(CN3CCC4(CCC4)C3)c2)[C@@H](O)[C@H]1O [Example 38, (1R,2S,3R,5R)-3-{4-amino-5-bromo-7H-pyrrolo[2,3-d]pyrimidin-7-yl}-5-[3-({6-azaspiro[3.4]octan-6-yl}methyl)phenyl]cyclopentane-1,2-diol] | 5.17 | 5.58 | 5.53
2 | Nc1ncnc2c1c(Br)cn2[C@@H]1C[C@H](c2cccc(CNCC34CC(F)(C3)C4)c2)[C@@H](O)[C@H]1O [Example 39, (1R,2S,3R,5R)-3-{4-amino-5-bromo-7H-pyrrolo[2,3-d]pyrimidin-7-yl}-5-(3-{[{{3-fluorobicyclo[1.1.1]pentan-1-yl}methyl)amino]methyl}phenyl)cyclopentane-1,2-diol] | 5.33 | 5.52 | 5.62
